Key:
MV4-11 = experiment: In vitro cytotoxicity (IC50) assay, alamarBlue; type: cell-based, human; details: MV4-11, AML M5
Experimental: (§1) Cells were seeded in triplicate at 10,000 per 80 uL, into 96-well plates 24 hours before compound overlay and cultured at 37° C. and 5% CO2. Compound (I) was prepared as a 10 mM stock in 100% DMSO and diluted with RPMI 1640 cell growth medium containing 10% FBS such that the final concentrations ranged from 50 pM to 15 uM. Aliquots (20 uL) from each concentration were overlaid to 80 uL of pre-seeded cells to achieve final concentrations of 10 pM to 3 uM. After 3 days, cell viability in each well was assessed by alamarBlue assay according to the manufacturer's instruction (ThermoFisher Scientific). Absorbance was read at 570 nm using a SpectraPlus microplate reader (Molecular Devices Corporation). alamarBlue absorbance values were adjusted by subtracting the average of the baseline readings from untreated cells assessed one day after cell seeding. The percentage (%) of relative inhibition of cell viability was calculated by comparing to DMSO-treated cells. IC50s were calculated using GraphPad PRISM software (GraphPad Software Inc.).

MOLT-4 = experiment: In vitro cytotoxicity (IC50) assay, alamarBlue; type: cell-based, human; details: MOLT-4, T-ALL
Experimental: as §1

[1] = system: MOLT-4 acute lymphoblastic leukemia xenograft; experiment: MOLT-4 xenograft tumor growth in SCID mice; type: in vivo; details: for complete regressions: 21 days of dosing; for tumors with regression observed / average tumor regression: day 13, fumarate
Experimental: The human acute lymphoblastic leukemia cell line MOLT-4 was acquired from American Type Culture Collection (Manassas, VA, USA) and grown in RPMI medium containing 100 units/mL penicillin G sodium, 100 μg/mL streptomycin sulfate. The media was supplemented with 10% heat-inactivated fetal bovine serum, 2 mM L-glutamine, and 0.11% sodium pyruvate. The tumor cells were maintained in a humidified environment of 5% CO2 and 95% air at 37° C. Cells were verified to be free of mouse pathogens by IMPACT IV PCR analysis (IDEXX RADIL, Colombia, MO, USA) before injection.
(§2) Female SCID mice were purchased from the Ontario Cancer Institute and received and acclimated at the MaRS-TMDT Animal Resources Centre for 2 weeks prior to the start of the experiment. The mice were fed ad libitum autoclaved water and Rodent Lab Diet (Harlan Teklad LM-485) consisting of 19% crude protein, 5% crude fat, and 5% crude fiber. Mice were housed in microisolator cages and maintained in an environment with a 12-hour light cycle at 20-22° C. and 40-60% humidity. On the day of implantation, MOLT-4 cells were harvested and resuspended with serum free DMEM to a concentration of 1×10^8/mL and each mouse was injected subcutaneously with a volume of 0.1 mL containing 1×10^7 MOLT-4 cells in the right rear flank.
Animals were dosed Compound (I) via oral gavage in a volume of 10 mL/kg. The animals were dosed with a 2.25 mm×50 mm curved gavage needle affixed to a 1 mL syringe. Vincristine was dosed by IP injection once per week.
(§3) Toxicity was evaluated by body weight measurements and clinical observations. The mice were observed daily for overt signs of any adverse, treatment related side effects, and clinical signs of toxicity. Acceptable toxicity was set at a group mean body weight loss of less than 20% during the study and not more than one treatment related death in a group. Animals were monitored for body weights and tumor growth where tumor volumes were calculated using the formula: tumor volume=width^2×length/2.
(§4) The study evaluated Compound (I) fumarate administered by oral gavage for 21 days, either daily at 7.5 mg/kg or 2 days on/5 days off at 13.5 mg/kg, in comparison to the standard-of-care agent vincristine, dosed in 4 weekly intraperitoneal injections of 0.5 mg/kg, in the MOLT-4 […] xenograft model in SCID (severe combined immunodeficiency) mice. Xenografts were established by subcutaneously injecting 1×10^7 tumor cells into the right flank of female SCID mice. Treatment was initiated 9 days following implantation when tumor volumes reached a mean volume of approximately 250 mm^3.

[2] = system: MV4-11 acute myeloid leukemia xenograft; experiment: MV4-11 xenograft tumor growth in SCID mice; type: in vivo; details: for tumor response by day 10: fumarate
Experimental: The human acute myeloid leukemia cell line MV4-11 was acquired from American Type Culture Collection (Manassas, VA, USA) and grown in RPMI medium containing 100 units/mL penicillin G sodium, 100 μg/mL streptomycin sulfate. The media was supplemented with 10% heat-inactivated fetal bovine serum, 2 mM L-glutamine, and 0.11% sodium pyruvate. The tumor cells were maintained in a humidified environment of 5% CO2 and 95% air at 37° C. Cells were verified to be free of mouse pathogens by IMPACT IV PCR analysis (IDEXX RADIL, Colombia, MO, USA) before injection.
as §2, with “MV4-11” for “MOLT-4”
Animals were dosed Compound (I) via oral gavage in a volume of 10 ml/kg. The animals were dosed with a 2.25 mm×50 mm curved gavage needle affixed to a 1 ml syringe. Vincristine was dosed by IP injection once per week.
as §3
as §4, with “gavage,” for “gavage for 21 days,”, “MV4-11” for “MOLT-4”, “14” for “9”, “90” for “250”, “mm^3. […] Animals were dosed in the 2-on/5-off schedule for 21 days. […] By day 13, the average volume of the control tumors was 878 mm^3, averaging […] tumor growth over the 13 days. On day 13 the average tumor growth inhibition in the vincristine treated arm was 85% (p=0.14).” for “mm^3.”

[3] = Homo sapiens, 72 h, 3 days, read-out: Compound (I) IC50
[4] = Day 25, 2-on/5-off arm 13.5 mg/kg

COc1ccc2c(c1)[C@]1(C[C@H]1c1ccc3c(/C=C/c4ccc(CN5C[C@@H](C)O[C@@H](C)C5)cc4)n[nH]c3c1)C(=O)N2 [Compound (I), (1R,2S)-2-(3-((E)-4-(((2S,6R)-2,6-dimethylmorpholino)methyl)styryl)-1H-indazol-6-yl)-5′-methoxyspiro[cyclopropane-1,3′-indolin]-2′-one]
IC50 (MV4-11; [3]): 5.7 nM | Response to Compound (I) (MV4-11): death | IC50 (MOLT-4; [3]): 4.1 nM | Response to Compound (I) (MOLT-4): death | average regression [1, 4]: 96% | complete regressions [1, 4]: 6 of 8 | complete regressions ([1]; Day 25, daily dosing arm 7.5 mg/kg): 8 of 8 | overall efficacy in MOLT-4 xenograft model ([1]; SCID mice): very efficacious and potentially curative | tumors with regression observed ([1]; oral 13.5 mg/kg 2-on/5-off): 7 of 8 | average tumor regression ([1]; oral 13.5 mg/kg 2-on/5-off, p=6.5*10^-6): 28% | tumors with regression observed ([1]; oral daily 7.5 mg/kg): 7 of 8 | average tumor regression ([1]; oral daily 7.5 mg/kg, p=2.5*10^-6): 77% | animals remained tumor-free until ([2]; 2 days-on/5 days-off arm, 13.5 mg/kg): 24 days | overall efficacy in MV4-11 xenograft model ([2]; SCID mice): very efficacious and potentially curative | animals remained tumor-free until ([2]; daily dosing arm, 7.5 mg/kg): 74 days | animals tumor free until last measurement time point ([2]; daily dosing arm, Day 128): Four of 6 | tumor response by day 10 ([2]; oral 13.5 mg/kg 2-on/5-off): completely regressed tumors | tumor response by day 10 ([2]; oral daily 7.5 mg/kg): completely regressed tumors | toxicity: reason daily dosing was halted ([2]; oral daily 7.5 mg/kg, halted after 14 days): excessive body weight loss
